Data as given in PubChem BioAssay AID330 (DTP/NCI, 2004).
“And” between values parts separate entries of the source, which are not always exact repeats. Equal entries are not always repeated. Inconclusive results and toxic doses are left out.

Test system: P388 leukemia ip, CD2F1 mice, survival T/C
Assay: NCI In Vivo Anticancer Drug Screen. Data for tumor model P388 Leukemia (intraperitoneal) in CD2F1 (CDF1) mice
Conditions: endpoint: median survival time, higher = longer survival
Procedure, shortened: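 Mice carrying the transplanted tumor received test compound or vehicle. Survival was recorded in each group, and the value is the treated-group measurement divided by that of the vehicle-treated control group.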

In the case of ClCC[N+]12CC[N+](CCCl)(CC1)C2, the T/C (dose: 6.25 mg/kg/injection, schedule: Q01DX006 (ip), vehicle: water) was 120 % of control, the T/C (dose: 6.25 mg/kg/injection, schedule: Q01DX009 (ip), vehicle: distilled water + Tween-80) was 117 % of control and the T/C (dose: 6.25 mg/kg/injection, schedule: Q01DX009 (ip), vehicle: water) was 115 % of control [middle of 4 runs]. The T/C (dose: 7.5 mg/kg/injection, schedule: Q01DX005 (iv), vehicle: clinical formulation) was 105 % of control, the T/C (dose: 7.5 mg/kg/injection, schedule: Q01DX005 (iv), vehicle: water) was 100 % of control and 106 % of control and the T/C (dose: 12.5 mg/kg/injection, schedule: Q01DX006 (ip), vehicle: water) was 101 % of control. For the same compound, the T/C (dose: 12.5 mg/kg/injection, schedule: Q01DX009 (ip), vehicle: saline) was 105 % of control, the T/C (dose: 12.5 mg/kg/injection, schedule: Q01DX009 (ip), vehicle: water) was 100 % of control and 104 % of control and 107 % of control and the T/C (dose: 15.0 mg/kg/injection, schedule: Q01DX005 (iv), vehicle: clinical formulation) was 105 % of control. The T/C (dose: 15.0 mg/kg/injection, schedule: Q01DX005 (iv), vehicle: water) was 99 % of control and 110 % of control, the T/C (dose: 15.0 mg/kg/injection, schedule: Q01DX009 (ip), vehicle: clinical formulation) was 100 % of control and the T/C (dose: 15.0 mg/kg/injection, schedule: Q01DX009 (ip), vehicle: water) was 99 % of control and 116 % of control. For the same compound, the T/C (dose: 20.0 mg/kg/injection, schedule: Q01DX005 (ip), vehicle: water) was 106 % of control, the T/C (dose: 21.08 mg/kg/injection, schedule: Q01DX009 (ip), vehicle: water) was 115 % of control and 103 % of control and the T/C (dose: 23.71 mg/kg/injection, schedule: Q01DX005 (iv), vehicle: clinical formulation) was 105 % of control. For the same compound, the T/C (dose: 23.71 mg/kg/injection, schedule: Q01DX005 (iv), vehicle: water) was 110 % of control and 105 % of control, the T/C (dose: 25.0 mg/kg/injection, schedule: Q01DX006 (ip), vehicle: water) was 113 % of control and the T/C (dose: 25.0 mg/kg/injection, schedule: Q01DX009 (ip), vehicle: water) was 109 % of control and 115 % of control. For the same compound, the T/C (dose: 30.0 mg/kg/injection, schedule: Q01DX001 (ip), vehicle: water) was 113 % of control, the T/C (dose: 30.0 mg/kg/injection, schedule: Q01DX001 (iv), vehicle: water) was 109 % of control and the T/C (dose: 30.0 mg/kg/injection, schedule: Q01DX005 (ip), vehicle: water) was 163 % of control. For the same compound, the T/C (dose: 30.0 mg/kg/injection, schedule: Q01DX005 (iv), vehicle: clinical formulation) was 109 % of control, the T/C (dose: 30.0 mg/kg/injection, schedule: Q01DX005 (iv), vehicle: water) was 113 % of control and the T/C (dose: 30.0 mg/kg/injection, schedule: Q01DX005 (oral), vehicle: water) was 110 % of control. The T/C (dose: 30.0 mg/kg/injection, schedule: Q01DX009 (ip), vehicle: clinical formulation) was 100 % of control, the T/C (dose: 30.0 mg/kg/injection, schedule: Q01DX009 (ip), vehicle: water) was 123 % of control and the T/C (dose: 30.0 mg/kg/injection, schedule: Q01DX009 (oral), vehicle: water) was 120 % of control. For the same compound, the T/C (dose: 31.61 mg/kg/injection, schedule: Q01DX009 (ip), vehicle: water) was 119 % of control, the T/C (dose: 35.56 mg/kg/injection, schedule: Q01DX005 (iv), vehicle: clinical formulation) was 111 % of control and the T/C (dose: 35.56 mg/kg/injection, schedule: Q01DX005 (iv), vehicle: water) was 110 % of control and 106 % of control. The T/C (dose: 40.0 mg/kg/injection, schedule: Q01DX005 (ip), vehicle: water) was 114 % of control, the T/C (dose: 44.0 mg/kg/injection, schedule: Q01DX009 (ip), vehicle: water) was 158 % of control and the T/C (dose: 47.42 mg/kg/injection, schedule: Q01DX009 (ip), vehicle: water) was 160 % of control. The T/C (dose: 50.0 mg/kg/injection, schedule: Q01DX006 (ip), vehicle: water) was 123 % of control, the T/C (dose: 50.0 mg/kg/injection, schedule: Q01DX009 (ip), vehicle: saline with Tween-80) was 100 % of control and the T/C (dose: 50.0 mg/kg/injection, schedule: Q01DX009 (ip), vehicle: saline) was 162 % of control and 180 % of control. For the same compound, the T/C (dose: 50.0 mg/kg/injection, schedule: Q01DX009 (ip), vehicle: water) was 113 % of control and 120 % of control, the T/C (dose: 50.0 mg/kg/injection, schedule: Q04DX003 (ip), vehicle: distilled water + Tween-80) was 124 % of control and the T/C (dose: 53.34 mg/kg/injection, schedule: Q01DX005 (iv), vehicle: water) was 115 % of control and 111 % of control. The T/C (dose: 60.0 mg/kg/injection, schedule: Q01DX001 (ip), vehicle: water) was 115 % of control, the T/C (dose: 60.0 mg/kg/injection, schedule: Q01DX001 (iv), vehicle: water) was 117 % of control and the T/C (dose: 60.0 mg/kg/injection, schedule: Q01DX001 (oral), vehicle: water) was 109 % of control. For the same compound, the T/C (dose: 60.0 mg/kg/injection, schedule: Q01DX005 (ip), vehicle: water) was 154 % of control and 170 % of control, the T/C (dose: 60.0 mg/kg/injection, schedule: Q01DX005 (iv), vehicle: clinical formulation) was 120 % of control and the T/C (dose: 60.0 mg/kg/injection, schedule: Q01DX005 (oral), vehicle: water) was 119 % of control. For the same compound, the T/C (dose: 60.0 mg/kg/injection, schedule: Q01DX009 (ip), vehicle: water) was 155 % of control, the T/C (dose: 66.0 mg/kg/injection, schedule: Q01DX009 (ip), vehicle: water) was 167 % of control and the T/C (dose: 71.12 mg/kg/injection, schedule: Q01DX009 (ip), vehicle: clinical formulation) was 173 % of control. For the same compound, the T/C (dose: 71.12 mg/kg/injection, schedule: Q01DX009 (ip), vehicle: water) was 177 % of control and 165 % of control, the T/C (dose: 80.0 mg/kg/injection, schedule: Q01DX005 (iv), vehicle: clinical formulation) was 122 % of control and the T/C (dose: 80.0 mg/kg/injection, schedule: Q01DX005 (iv), vehicle: water) was 119 % of control and 112 % of control. The T/C (dose: 100.0 mg/kg/injection, schedule: Q01DX005 (ip), vehicle: water) was 155 % of control, the T/C (dose: 100.0 mg/kg/injection, schedule: Q01DX009 (ip), vehicle: saline with Tween-80) was 189 % of control and 198 % of control and 213 % of control and the T/C (dose: 100.0 mg/kg/injection, schedule: Q01DX009 (ip), vehicle: saline) was 153 % of control and 163 % of control and 182 % of control. The T/C (dose: 100.0 mg/kg/injection, schedule: Q01DX009 (oral), vehicle: saline with Tween-80) was 112 % of control, the T/C (dose: 100.0 mg/kg/injection, schedule: Q04DX003 (ip), vehicle: distilled water + Tween-80) was 151 % of control and the T/C (dose: 100.0 mg/kg/injection, schedule: Q04DX003 (ip), vehicle: saline with Tween-80) was 154 % of control. For the same compound, the T/C (dose: 106.68 mg/kg/injection, schedule: Q01DX009 (ip), vehicle: water) was 214 % of control, the T/C (dose: 120.0 mg/kg/injection, schedule: Q01DX001 (oral), vehicle: water) was 114 % of control and the T/C (dose: 120.0 mg/kg/injection, schedule: Q01DX005 (ip), vehicle: water) was 184 % of control. For the same compound, the T/C (dose: 150.0 mg/kg/injection, schedule: Q01DX009 (ip), vehicle: water) was 99 % of control, the T/C (dose: 160.0 mg/kg/injection, schedule: Q01DX009 (ip), vehicle: water) was 231 % of control and the T/C (dose: 178.0 mg/kg/injection, schedule: Q01DX001 (ip), vehicle: saline with Tween-80) was 124 % of control. The T/C (dose: 200.0 mg/kg/injection, schedule: Q01DX009 (ip), vehicle: saline with Tween-80) was 120 % of control and 233 % of control, the T/C (dose: 200.0 mg/kg/injection, schedule: Q01DX009 (ip), vehicle: saline) was 234 % of control and 90 % of control and the T/C (dose: 200.0 mg/kg/injection, schedule: Q01DX009 (ip), vehicle: water) was 180 % of control. For the same compound, the T/C (dose: 200.0 mg/kg/injection, schedule: Q04DX003 (ip), vehicle: distilled water + Tween-80) was 171 % of control, the T/C (dose: 200.0 mg/kg/injection, schedule: Q04DX003 (ip), vehicle: saline with Tween-80) was 186 % of control and 190 % of control and the T/C (dose: 240.0 mg/kg/injection, schedule: Q01DX001 (oral), vehicle: water) was 117 % of control. The T/C (dose: 240.0 mg/kg/injection, schedule: Q01DX009 (ip), vehicle: water) was 87 % of control, the T/C (dose: 264.0 mg/kg/injection, schedule: Q04DX003 (ip), vehicle: saline with Tween-80) was 227 % of control and the T/C (dose: 400.0 mg/kg/injection, schedule: Q01DX001 (ip), vehicle: saline with Tween-80) was 159 % of control.
In the case of Cc1ccc(/C=N/O)cc1, the T/C (dose: 25.0 mg/kg/injection, schedule: Q01DX005 (ip), vehicle: Klucel (hydroxypropylcellulose) (HPC)) was 97 % of control, the T/C (dose: 50.0 mg/kg/injection, schedule: Q01DX005 (ip), vehicle: Klucel (hydroxypropylcellulose) (HPC)) was 98 % of control and the T/C (dose: 100.0 mg/kg/injection, schedule: Q01DX005 (ip), vehicle: Klucel (hydroxypropylcellulose) (HPC)) was 99 % of control. For the same compound, the T/C (dose: 200.0 mg/kg/injection, schedule: Q01DX005 (ip), vehicle: Klucel (hydroxypropylcellulose) (HPC)) was 98 % of control.
